The record followed here is ChEMBL document CHEMBL5223103, “FLT3 inhibitors for acute myeloid leukemia: successes, defeats, and emerging paradigms” (RSC Med Chem, 2022).

Assay [1] deals with Interleukin-1 receptor-associated kinase 1 (Homo sapiens, UniProt P51617). The assay can be described thus: Inhibition of IRAK-1 (unknown origin).
Assay [2] concerns the target Macrophage colony-stimulating factor 1 receptor (Homo sapiens, UniProt P07333). The assay can be described thus: Inhibition of FMS (unknown origin).
The subject of assay [3] is BaF3. The assay is described as follows: Growth inhibition of mouse BaF3 cells transfected in FLT3-ITD mutant measured after 72 hrs by CCK8 assay. Type of assay: functional. In general terms: Tetrazolium assays rely on reduction of a dye to a coloured formazan, in cell work by metabolically active cells.
Assay [4] has as its system BaF3. The assay is described as follows: Growth inhibition of mouse BaF3 cells transfected in FLT3-TDK mutant measured after 72 hrs by CCK8 assay. It is filed as functional.
For assay [5], the system named is MV4-11. The assay can be described thus: Growth inhibition of human MV4-11 cells by WST-8 assay. Type of assay: functional.
The test system of assay [6] is MOLM-13. The assay is described as follows: Growth inhibition of human MOLM-13 cells by WST-8 assay. Type of assay: functional.
Assay [7] deals with MOLM-13. The assay can be described thus: Growth inhibition of human MOLM-13 cells harboring FLT3 resistant inhibitor assessed as growth inhibition. Type of assay: functional.
Assay [8] concerns BaF3. The assay is described as follows: Growth inhibition of mouse BAF3 cells harboring FLT3 ITD mutant assessed as reduction in cell inhibition measured after 72 hrs by MTT assay. Type of assay: functional.
In assay [9] the test system is MV4-11. The assay is described as follows: Growth inhibition of human MV4-11 cells assessed as reduction in cell growth by cell viability assay. It is filed as functional.
Assay [10] concerns MOLM-13. The assay is described as follows: Growth inhibition of human MOLM-13 cells assessed as reduction in cell growth by cell viability assay. It is filed as functional.
Assay [11] deals with MOLM-14. The assay is described as follows: Growth inhibition of human MOLM-14 cells assessed as reduction in cell growth by cell viability assay. Type of assay: functional.
Assay [12] has as its system Kasumi 1. The assay is described as follows: Growth inhibition of human Kasumi 1 cells assessed as reduction in cell growth by cell viability assay. Type of assay: functional.
Assay [13] has as its system EOL1. The assay can be described thus: Growth inhibition of human EOL1 cells assessed as reduction in cell growth by cell viability assay. It is filed as functional.
The test system of assay [14] is THP-1. The assay can be described thus: Growth inhibition of human THP-1 cells assessed as reduction in cell growth by cell viability assay. Type of assay: functional.
The test system of assay [15] is K562. The assay can be described thus: Growth inhibition of human K562 cells assessed as reduction in cell growth by cell viability assay. It is filed as functional.
The nature of assay [16]: Growth inhibition of mouse 32D cells harboring FLT3-ITD mutant assessed as growth inhibition by WST assay. It is filed as functional.
The nature of assay [17]: Growth inhibition of mouse 32D cells harboring FLT3-ITD-D835Y mutant assessed as growth inhibition WST assay. Type of assay: functional.
The nature of assay [18]: Growth inhibition of mouse 32D cells harboring FLT3-ITD-Y842C mutant assessed as growth inhibition WST assay. It is filed as functional.
Assay [19] can be described thus: Growth inhibition of mouse 32D cells harboring FLT3-ITD-Y842H mutant assessed as growth inhibition WST assay. Type of assay: functional.
Assay [20] is described as follows: Growth inhibition of mouse 32D cells harboring FLT3-ITD-F691L mutant assessed as growth inhibition WST assay. Type of assay: functional.
The nature of assay [21]: Growth inhibition of mouse 32D cells harboring FLT3-D835Y mutant assessed as growth inhibition WST assay. Type of assay: functional.
Assay [22] concerns BaF3. The assay is described as follows: Growth inhibition of mouse BaF3 cells transfected with FLT3-ITD assessed as inhibition of cell growth measured after 48 hrs by MTT assay. It is filed as functional.
Assay [23] has as its system BaF3. The assay can be described thus: Growth inhibition of mouse BaF3 cells transfected with FLT3-D835Y assessed as inhibition of cell growth measured after 48 hrs by MTT assay. It is filed as functional.

In general, IC50 refers to the concentration that gives 50% inhibition. Usually GI50 stands for the concentration giving 50% growth inhibition.

Interleukin-1 receptor-associated kinase 1, sequence (P51617 whole entry): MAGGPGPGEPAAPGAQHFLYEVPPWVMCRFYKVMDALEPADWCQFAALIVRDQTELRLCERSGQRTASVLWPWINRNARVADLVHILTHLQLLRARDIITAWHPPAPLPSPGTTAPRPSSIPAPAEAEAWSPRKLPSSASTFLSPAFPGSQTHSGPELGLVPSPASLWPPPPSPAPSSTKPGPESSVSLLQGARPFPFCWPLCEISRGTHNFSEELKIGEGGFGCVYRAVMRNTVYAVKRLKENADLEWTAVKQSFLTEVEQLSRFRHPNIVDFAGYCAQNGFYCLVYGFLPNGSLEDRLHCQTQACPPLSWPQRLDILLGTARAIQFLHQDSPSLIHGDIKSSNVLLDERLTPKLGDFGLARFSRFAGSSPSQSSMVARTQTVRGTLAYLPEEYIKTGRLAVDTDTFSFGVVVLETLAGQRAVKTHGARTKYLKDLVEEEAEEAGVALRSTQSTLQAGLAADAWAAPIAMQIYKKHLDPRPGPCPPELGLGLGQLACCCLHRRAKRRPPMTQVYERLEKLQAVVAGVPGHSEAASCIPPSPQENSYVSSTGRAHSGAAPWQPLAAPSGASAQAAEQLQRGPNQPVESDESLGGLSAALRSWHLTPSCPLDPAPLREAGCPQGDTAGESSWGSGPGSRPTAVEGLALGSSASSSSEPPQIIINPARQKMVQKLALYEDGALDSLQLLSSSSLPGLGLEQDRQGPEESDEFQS
Macrophage colony-stimulating factor 1 receptor, sequence (P07333 whole entry): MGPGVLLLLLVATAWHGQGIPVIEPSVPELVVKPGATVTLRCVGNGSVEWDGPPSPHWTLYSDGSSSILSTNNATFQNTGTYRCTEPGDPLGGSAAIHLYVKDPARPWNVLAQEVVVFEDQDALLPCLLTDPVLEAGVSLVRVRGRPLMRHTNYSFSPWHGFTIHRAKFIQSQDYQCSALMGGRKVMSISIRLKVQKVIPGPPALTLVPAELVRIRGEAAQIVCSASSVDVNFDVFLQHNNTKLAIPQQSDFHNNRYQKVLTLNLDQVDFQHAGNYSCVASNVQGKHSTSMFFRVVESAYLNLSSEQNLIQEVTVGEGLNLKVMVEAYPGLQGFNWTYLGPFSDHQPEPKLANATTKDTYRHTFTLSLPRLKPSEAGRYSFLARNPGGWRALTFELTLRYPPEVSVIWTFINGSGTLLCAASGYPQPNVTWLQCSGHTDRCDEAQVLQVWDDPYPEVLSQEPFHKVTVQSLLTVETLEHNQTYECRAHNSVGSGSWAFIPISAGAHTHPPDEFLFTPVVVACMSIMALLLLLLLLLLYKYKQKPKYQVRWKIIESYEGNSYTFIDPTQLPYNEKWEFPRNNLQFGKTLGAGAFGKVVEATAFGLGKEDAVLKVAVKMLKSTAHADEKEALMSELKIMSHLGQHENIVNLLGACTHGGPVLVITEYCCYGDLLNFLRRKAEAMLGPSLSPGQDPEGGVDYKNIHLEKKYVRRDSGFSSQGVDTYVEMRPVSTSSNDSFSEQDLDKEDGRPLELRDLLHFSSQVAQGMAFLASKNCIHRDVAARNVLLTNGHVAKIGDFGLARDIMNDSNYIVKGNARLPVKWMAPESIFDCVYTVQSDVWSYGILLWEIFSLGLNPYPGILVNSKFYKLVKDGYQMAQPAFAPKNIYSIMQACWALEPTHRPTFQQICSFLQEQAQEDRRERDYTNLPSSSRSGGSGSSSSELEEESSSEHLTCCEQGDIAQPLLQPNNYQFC

On to `C1=N/C2=N/c3ccc(OCCN4CCCC4)c(c3)COC/C=C/COCc3cccc(c3)C(=C1)N2` [PACRITINIB], for which the IC50 in [1] worked out at 13.6 nM; in assay [2], 39.5 nM. Besides, the GI50 in assay [3] is 133 nM; in [4], below 434 nM; in assay [5] it was 33 nM; in assay [6], 73 nM; in assay [7], 173 nM.
In the case of `C[C@]12O[C@H](C[C@]1(O)CO)n1c3ccccc3c3c4c(c5c6ccccc6n2c5c31)CNC4=O` [LESTAURTINIB], the 50% growth inhibitory concentration (GI50) in assay [8] is 5 nM.
Take `CCCNc1nc(Nc2ccc(C#N)cc2)ncc1C#CCCCNC(=O)[C@H](C)N(C)C(=O)/C=C/CN(C)C` [FF-10101]: the GI50 in assay [9] was 0.83 nM; in [10], 1.1 nM; in assay [11], 1.5 nM; in assay [12], 26 nM; in assay [13] it was 72 nM; in assay [14], above 1000 nM. Also, the GI50 is above 1000 nM in assay [15]; 1.9 nM in assay [16]; 0.81 nM in [17]; 3.5 nM in assay [18]; 5.3 nM in assay [19]; 10 nM in [20]. Further, the 50% growth inhibitory concentration (GI50) in assay [21] came out at 1.1 nM.
As to `CCc1nc(C(N)=O)c(Nc2ccc(N3CCC(N4CCN(C)CC4)CC3)c(OC)c2)nc1NC1CCOCC1` [GILTERITINIB], the 50% growth inhibitory concentration (GI50) in [22] worked out at 1.8 nM; in assay [23] it was 1.6 nM.
